Patent EP0606747A1, “Tilmicosin and derivatives for treating gram-positive diseases of aquatic species” (ELI LILLY AND COMPANY, priority 1992, dated 1994)
Converted amounts (≈) assume the structure as drawn. Read-outs that look alike come from different tables or passages of the source.

Assays:
[1] = Test 3: palatability and growth study in Atlantic salmon, tilmicosin base versus phosphate salt; assay type: in vivo, Atlantic salmon (Salmo salar); conditions: 800 mg/kg of diet (free base equivalent), four weeks; cause of death could not be determined
Protocol: Test 3: Palatability and Growth Studies in Atlantic Salmon, Comparing Tilmicosin Base and Phosphate Salt
A trial was conducted to determine the palatability to Atlantic salmon (Salmo salar), St. John River strain, of diets containing either tilmicosin (free base) or tilmicosin phosphate. Pre-smolt salmon, each weighing about 50 grams, from a certified disease free stock, were used. The salmon, 30 per tank and 9 tanks, were acclimatized for about two weeks. During this period and throughout the trial, the tanks were maintained with fresh single-pass flow-through well water, 2 liters per minute, 12 ± 1°C., and the photoperiod was 12/12. During the acclimatization, all fish were fed a standard feed. Thereafter the salmon in three tanks continued to receive the standard diet, to serve as a control. The salmon in three other tanks received a modified diet containing 800 mg of tilmicosin (free base) per kilogram of diet; the salmon in the last three tanks received a modified diet containing tilmicosin phosphate in an amount equivalent to 800 mg of tilmicosin (free base) per kilogram of diet. […] The trial was continued for a four-week period, during which these parameters were evaluated: feed intake feed intake as % of body weight weight gain weight gain as % of body weight feed conversion All surviving fish were euthanized. […]

[2] = tested on: Renibacterium salmoninarum; assay: In vitro evaluation of tilmicosin against Renibacterium salmoninarum (MIC); assay type: cell-based; conditions: for MIC: Renibacterium salmoninarum, read-out: minimum inhibitory concentration (MIC)
Protocol: Test 1: In vitro evaluation of tilmicosin against Renibacterium salmoninarum.
A dozen strains of Renibactenum salmoninarum were obtained and cultured in standard procedures. Eight grew successfully and were employed in the evaluation of tilmicosin.
Tilmicosin was evaluated at various concentrations and the minimum inhibitory concentration (MIC) determined for each of the strains. For three of the strains, the MIC was 1 µg/ml; for the remaining five strains, the MIC was 2 µg/ml.

[3] = Test 2: palatability and growth study in Atlantic salmon, medicated diets, four weeks; assay type: in vivo, Atlantic salmon (Salmo salar); conditions: all fish at the end of the four-week study
Protocol: Test 2: Palatability and growth studies in Atlantic salmon.
A trial was conducted to determine the palatability and effect on growth of Atlantic salmon (Salmo salar), St. John River strain, of diets containing various concentrations of tilmicosin. Pre-smolt salmon, each weighing about 50 grams, from a stock certified to be free of bacterial kidney disease, were used. The fish were acclimatized for four weeks. During this period, the fish were in tanks maintained with fresh single-pass flow-through well water, 10±2°C., and a photoperiod of 12/12. Water flow rate was adequate to provide a dissolved oxygen concentration of ≧ 5 mg/liter post feeding and under conditions of normal activity provided a dissolved oxygen concentration of ≧ 8 mg/liter. All fish were fed a standard diet. […]
All fish were fed 3× on weekdays and 1× or 2× on weekend days. […] The trial lasted four weeks, and the following parameters were determined: feed intake feed intake as % of body weight weight gain weight gain as % of body weight feed conversion At the end of the four weeks, the fish were sacrificed and tissue from liver, muscle, and kidney analyzed for tilmicosin by an HPLC assay. […] Quantitative determination of tilmicosin was accomplished by reversed-phase HPLC with a phenylsilyl stationary phase and a U.V. absorption detector at 280 nm. […]

MIC ([2]; remaining five of the eight strains) [µg/mL]	MIC ([2]; three of the eight strains) [µg/mL]	Post-mortem examination [3]	Compound	mortality [1]	growth ([2]; lower concentrations down to 0.25 µg/ml)
			tilmicosin phosphate	One fish from the tank receiving tilmicosin phosphate died	
2 (≈ 2.3 µM)	1 (≈ 1.15 µM)	no gross abnormalities	CC[C@H]1OC(=O)C[C@@H](O)[C@H](C)[C@@H](O[C@@H]2O[C@H](C)[C@@H](O)[C@H](N(C)C)[C@H]2O)[C@@H](CCN2C[C@H](C)C[C@H](C)C2)C[C@@H](C)C(=O)/C=C/C(C)=C/[C@@H]1CO[C@@H]1O[C@H](C)[C@@H](O)[C@@H](OC)[C@H]1OC [tilmicosin]		dramatic reduction in growth
